Data reported in ChEMBL document CHEMBL1909046, “DrugMatrix in vitro pharmacology data”.

Assays:
[1] = molecular target: D(3) dopamine receptor (Homo sapiens, UniProt P35462); test: DRUGMATRIX: Dopamine D3 radioligand binding (ligand: [3H] Spiperone); type: cell membranes, CHO, Membrane; details: cho
[2] = DRUGMATRIX: Calcium Channel Type L, Benzothiazepine radioligand binding (ligand: [3H] Diltiazem); type: cell membranes, Rattus norvegicus, Wistar, Brain, Membrane; details: Not Active = under 50% inhibition at 10 µM
[3] = molecular target: Beta-2 adrenergic receptor (Homo sapiens, UniProt P07550); test: DRUGMATRIX: Adrenergic beta2 radioligand binding (ligand: [3H] CGP-12177); type: cell membranes, Membrane; details: cho; Not Active = under 50% inhibition at 10 µM
[4] = molecular target: T1, 5-hydroxytryptamine receptor 2C (Homo sapiens, UniProt P28335); test: DRUGMATRIX: Serotonin (5-Hydroxytryptamine) 5-HT2C radioligand binding (ligand: [3H] Mesulergine); type: cell membranes, CHO-K1, Membrane; details: cho-k1; Not Active = under 50% inhibition at 10 µM
T1 sequence (P28335 whole entry): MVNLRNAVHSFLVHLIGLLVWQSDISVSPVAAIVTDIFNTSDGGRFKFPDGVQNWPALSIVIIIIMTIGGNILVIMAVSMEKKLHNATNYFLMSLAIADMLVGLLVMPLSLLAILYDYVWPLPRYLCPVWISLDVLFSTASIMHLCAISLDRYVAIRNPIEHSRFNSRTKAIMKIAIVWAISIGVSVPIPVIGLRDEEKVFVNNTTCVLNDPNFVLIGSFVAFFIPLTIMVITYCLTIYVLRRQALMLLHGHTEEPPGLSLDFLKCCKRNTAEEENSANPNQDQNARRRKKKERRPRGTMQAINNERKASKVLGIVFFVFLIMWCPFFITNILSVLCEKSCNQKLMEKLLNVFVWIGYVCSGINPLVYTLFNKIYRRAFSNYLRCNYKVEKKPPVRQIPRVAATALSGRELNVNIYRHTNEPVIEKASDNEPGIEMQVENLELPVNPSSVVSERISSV

[5] = molecular target: Mitogen-activated protein kinase 1 (Homo sapiens, UniProt P28482); test: DRUGMATRIX: Protein Serine/Threonine Kinase, ERK2 enzyme inhibition (substrate: Myelin Basic Protein); parameters: species or system Escherichia coli; details: Not Active = under 50% inhibition at 10 µM
[6] = molecular target: T2, Estrogen receptor (Homo sapiens, UniProt P03372); details: sf9; further: in other assays of this panel Not Active means under 50% inhibition at 10 µM
T2 sequence (P03372 whole entry): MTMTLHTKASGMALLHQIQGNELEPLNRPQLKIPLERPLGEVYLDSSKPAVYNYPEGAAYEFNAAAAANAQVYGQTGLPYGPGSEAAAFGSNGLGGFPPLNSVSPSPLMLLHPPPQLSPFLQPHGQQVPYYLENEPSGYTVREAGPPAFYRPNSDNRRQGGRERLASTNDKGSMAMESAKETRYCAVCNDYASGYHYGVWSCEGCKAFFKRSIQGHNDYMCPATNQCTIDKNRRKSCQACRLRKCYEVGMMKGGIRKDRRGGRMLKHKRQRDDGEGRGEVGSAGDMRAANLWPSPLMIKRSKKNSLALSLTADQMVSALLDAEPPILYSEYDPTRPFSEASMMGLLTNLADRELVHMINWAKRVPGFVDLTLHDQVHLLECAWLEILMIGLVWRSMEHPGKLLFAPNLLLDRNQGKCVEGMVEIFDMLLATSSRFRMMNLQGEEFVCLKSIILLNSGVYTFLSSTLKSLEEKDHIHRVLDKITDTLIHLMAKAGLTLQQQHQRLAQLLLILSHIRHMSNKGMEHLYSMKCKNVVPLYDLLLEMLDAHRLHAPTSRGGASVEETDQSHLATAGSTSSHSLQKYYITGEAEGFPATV

Sequence of D(3) dopamine receptor (P35462 whole entry): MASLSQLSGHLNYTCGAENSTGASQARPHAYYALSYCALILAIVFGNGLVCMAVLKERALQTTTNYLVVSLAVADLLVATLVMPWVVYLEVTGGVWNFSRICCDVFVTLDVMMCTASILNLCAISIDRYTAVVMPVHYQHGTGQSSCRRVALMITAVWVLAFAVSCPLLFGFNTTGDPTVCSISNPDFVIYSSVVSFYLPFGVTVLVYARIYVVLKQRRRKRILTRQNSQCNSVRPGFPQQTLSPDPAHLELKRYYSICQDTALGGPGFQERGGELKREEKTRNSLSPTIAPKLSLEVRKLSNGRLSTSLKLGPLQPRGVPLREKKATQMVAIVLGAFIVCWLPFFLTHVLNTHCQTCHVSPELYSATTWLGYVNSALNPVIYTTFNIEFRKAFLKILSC
Sequence of Mitogen-activated protein kinase 1 (P28482 whole entry): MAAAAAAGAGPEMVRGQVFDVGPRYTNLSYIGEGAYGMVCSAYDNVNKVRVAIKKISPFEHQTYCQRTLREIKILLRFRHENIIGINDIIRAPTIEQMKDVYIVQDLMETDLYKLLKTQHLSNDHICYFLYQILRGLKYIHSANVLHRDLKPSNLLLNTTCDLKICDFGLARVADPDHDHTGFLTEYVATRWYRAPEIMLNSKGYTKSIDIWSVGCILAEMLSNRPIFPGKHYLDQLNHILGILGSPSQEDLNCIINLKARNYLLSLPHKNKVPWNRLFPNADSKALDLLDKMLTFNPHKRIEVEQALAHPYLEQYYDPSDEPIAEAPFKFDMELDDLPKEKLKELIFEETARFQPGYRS
Sequence of Beta-2 adrenergic receptor (P07550 whole entry): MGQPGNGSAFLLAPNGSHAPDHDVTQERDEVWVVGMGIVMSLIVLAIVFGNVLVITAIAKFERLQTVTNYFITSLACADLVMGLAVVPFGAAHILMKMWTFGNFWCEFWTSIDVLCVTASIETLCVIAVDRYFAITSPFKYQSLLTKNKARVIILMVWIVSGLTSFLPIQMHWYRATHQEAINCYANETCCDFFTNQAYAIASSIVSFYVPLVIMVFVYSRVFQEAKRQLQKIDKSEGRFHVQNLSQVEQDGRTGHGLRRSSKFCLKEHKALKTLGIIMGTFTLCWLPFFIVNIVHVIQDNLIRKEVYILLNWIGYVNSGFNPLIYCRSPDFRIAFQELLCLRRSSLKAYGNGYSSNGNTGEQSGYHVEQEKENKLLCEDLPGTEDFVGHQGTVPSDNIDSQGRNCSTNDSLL

Cn1ccnc1S [METHIMAZOLE]
Not Active: IC50 [1] | IC50 [2] | Ki [2] | IC50 [3] | IC50 [4] | IC50 [5] | IC50 [6]

Cc1oncc1C(=O)Nc1ccc(C(F)(F)F)cc1 [LEFLUNOMIDE]
Not Active: IC50 [1] | IC50 [2] | Ki [2] | IC50 [3] | IC50 [4] | IC50 [5] | IC50 [6]

COc1c(C)c2c(c(O)c1C/C=C(\C)CCC(=O)O)C(=O)OC2 [MYCOPHENOLIC ACID]
Not Active: IC50 [1] | IC50 [2] | Ki [2] | IC50 [3] | IC50 [4] | IC50 [5] | IC50 [6]

CCCOc1ccccc1-c1nc2nn[nH]c2c(=O)[nH]1 [ZAPRINAST]
Not Active: IC50 [1] | IC50 [2] | Ki [2] | IC50 [3] | IC50 [4] | IC50 [5] | IC50 [6]

C=CCC1(C(C)CCC)C(=O)NC(=O)NC1=O (centres undefined) [SECOBARBITAL]
Not Active: IC50 [1] | IC50 [2] | Ki [2] | IC50 [3] | IC50 [4] | IC50 [5] | IC50 [6]

CC(=O)[C@@]1(O)CC[C@H]2[C@@H]3C[C@H](C)C4=CC(=O)CC[C@]4(C)[C@H]3CC[C@@]21C
Not Active: IC50 [1] | IC50 [2] | Ki [2] | IC50 [3] | IC50 [4] | IC50 [5] | IC50 [6]

N#CC(C#N)=Cc1ccc(O)c(O)c1 [TYRPHOSTIN 23]
Not Active: IC50 [1] | IC50 [2] | Ki [2] | IC50 [3] | IC50 [4] | IC50 [5] | IC50 [6]
